# Measurements published in ChEMBL document CHEMBL1201862, “PubChem BioAssay data set” (2004).
#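 Cultured in 96-well plates, cells were exposed to test compound for 48 hours across five concentrations. GI50 is the concentration that inhibits growth by half.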 The source made the active and inactive calls. Rule as the data show it: active = GI50 up to about 1.1 µM and inactive = higher.
# Key:
# Assay in all cases: growth of human tumour cells (NCI), 48 h
# [1] = test system: MDA-MB-231
# [2] = test system: UACC-62
# [3] = test system: NCI-H226
# [4] = test system: OVCAR-4
# [5] = test system: NCI/ADR-RES
# [6] = test system: A498
# [7] = test system: SF-295
# [8] = test system: TK-10
# [9] = test system: A549
# [10] = test system: UACC-257
# [11] = test system: MDA-MB-435
# [12] = test system: UO-31
# [13] = test system: COLO 205
# [14] = test system: OVCAR-8
# [15] = test system: T47D
# [16] = test system: RPMI-8226
# [17] = test system: RXF 393
# [18] = test system: ACHN
# [19] = test system: OVCAR-3
# [20] = test system: HOP-62
# [21] = test system: HL-60
# [22] = test system: NCI-H23
# [23] = test system: MCF7
# [24] = test system: DU-145
# [25] = test system: HCT-15
# [26] = test system: LOX IMVI
# [27] = test system: KM12
# [28] = test system: 786-0
# [29] = test system: CCRF-CEM
# [30] = test system: OVCAR-5
# [31] = test system: NCI-H460
# [32] = test system: SK-MEL-2
# [33] = test system: HT-29
# [34] = test system: MDA-N
# [35] = test system: CAKI-1
# [36] = test system: SK-MEL-5
# [37] = test system: HOP-92
# [38] = test system: SK-OV-3
# [39] = test system: M14
# [40] = test system: U-251
# [41] = test system: Hs-578T
# [42] = test system: EKVX
# [43] = test system: BT-549
# [44] = test system: SR
# [45] = test system: HCT-116
# [46] = test system: NCI-H522
# [47] = test system: Malme-3M
# [48] = test system: IGROV-1
# [49] = test system: SNB-19
# [50] = test system: SN12C
# [51] = test system: MOLT-4
# [52] = test system: K562
# [53] = test system: SF-539
# [54] = test system: HCC 2998
# [55] = test system: PC-3
# [56] = test system: SF-268
# [57] = test system: SW-620
# [58] = test system: SK-MEL-28
# [59] = test system: SNB-75
smiles,measurement,setting,value
Cc1nnc2sc(-c3ccc([N+](=O)[O-])o3)nn12,GI50,[1],14 µM (inactive)
same,GI50,[2],10.4 µM (inactive)
same,GI50,[3],15 µM (inactive)
same,GI50,[4],15 µM (inactive)
same,GI50,[5],16.4 µM (inactive)
same,GI50,[6],45.5 µM (inactive)
same,GI50,[7],16.9 µM (inactive)
same,GI50,[8],15.3 µM (inactive)
same,GI50,[9],37.8 µM (inactive)
same,GI50,[10],12.7 µM (inactive)
same,GI50,[11],4.37 µM (inactive)
same,GI50,[12],15.2 µM (inactive)
same,GI50,[13],13.2 µM (inactive)
same,GI50,[14],11.4 µM (inactive)
same,GI50,[15],20 µM (inactive)
same,GI50,[16],10.5 µM (inactive)
same,GI50,[17],11.6 µM (inactive)
same,GI50,[18],11.2 µM (inactive)
same,GI50,[19],12.8 µM (inactive)
same,GI50,[20],15.2 µM (inactive)
same,GI50,[21],2.47 µM (inactive)
same,GI50,[22],15.5 µM (inactive)
same,GI50,[23],7.18 µM (inactive)
same,GI50,[24],15 µM (inactive)
same,GI50,[25],5.06 µM
same,GI50,[26],3.56 µM (inactive)
same,GI50,[27],15.8 µM (inactive)
same,GI50,[28],10.3 µM (inactive)
same,GI50,[29],1.85 µM (inactive)
same,GI50,[30],18.5 µM (inactive)
same,GI50,[31],17.9 µM (inactive)
same,GI50,[32],10.4 µM (inactive)
same,GI50,[33],12.9 µM (inactive)
same,GI50,[34],5.96 µM (inactive)
same,GI50,[35],10 µM (inactive)
same,GI50,[36],11.8 µM (inactive)
same,GI50,[37],15.9 µM (inactive)
same,GI50,[38],18.7 µM (inactive)
same,GI50,[39],9.91 µM (inactive)
same,GI50,[40],14.7 µM (inactive)
same,GI50,[41],30.3 µM (inactive)
same,GI50,[42],20.5 µM (inactive)
same,GI50,[43],10.7 µM (inactive)
same,GI50,[44],8.61 µM (inactive)
same,GI50,[45],6.46 µM (inactive)
same,GI50,[46],3.03 µM (inactive)
same,GI50,[47],4.08 µM (inactive)
same,GI50,[48],15.7 µM (inactive)
same,GI50,[49],18.8 µM (inactive)
same,GI50,[50],11.6 µM (inactive)
same,GI50,[51],3.15 µM (inactive)
same,GI50,[52],5.33 µM (inactive)
same,GI50,[53],4.84 µM (inactive)
same,GI50,[54],12.5 µM (inactive)
same,GI50,[55],14.7 µM (inactive)
same,GI50,[56],13.2 µM (inactive)
same,GI50,[57],4.85 µM (inactive)
C[C@]12CCC(=O)C=C1CC[C@@H]1[C@@H]2CC[C@]2(C)C(=O)/C(=C/c3ccc([N+](=O)[O-])cc3)C[C@@H]12,GI50,[1],75.2 µM (inactive)
same,GI50,[58],> 100 µM (inactive)
same,GI50,[2],3.36 µM (inactive)
same,GI50,[3],> 100 µM (inactive)
same,GI50,[59],42 µM (inactive)
same,GI50,[5],5.85 µM (inactive)
same,GI50,[6],2.3 µM (inactive)
same,GI50,[7],63.7 µM (inactive)
same,GI50,[8],> 100 µM (inactive)
same,GI50,[9],8.36 µM (inactive)
same,GI50,[10],6.59 µM (inactive)
same,GI50,[11],6.04 µM (inactive)
same,GI50,[12],3.45 µM (inactive)
same,GI50,[13],7.41 µM (inactive)
same,GI50,[14],45.8 µM (inactive)
same,GI50,[15],3.48 µM (inactive)
same,GI50,[16],5.52 µM (inactive)
same,GI50,[17],13.5 µM (inactive)
same,GI50,[18],2.36 µM (inactive)
same,GI50,[19],8.91 µM (inactive)
same,GI50,[20],49.8 µM (inactive)
same,GI50,[21],3.51 µM (inactive)
same,GI50,[22],27.8 µM (inactive)
same,GI50,[23],0.621 µM (active)
same,GI50,[24],0.824 µM (active)
same,GI50,[25],10.5 µM
same,GI50,[26],37.9 µM (inactive)
same,GI50,[27],6.93 µM (inactive)
same,GI50,[28],18.6 µM (inactive)
same,GI50,[29],8.97 µM (inactive)
same,GI50,[30],> 100 µM (inactive)
same,GI50,[31],9.57 µM (inactive)
same,GI50,[32],62.5 µM (inactive)
same,GI50,[33],> 100 µM (inactive)
same,GI50,[34],6.31 µM (inactive)
same,GI50,[35],8.95 µM (inactive)
same,GI50,[36],3.47 µM (inactive)
same,GI50,[37],> 100 µM (inactive)
same,GI50,[38],> 100 µM (inactive)
same,GI50,[39],29.4 µM (inactive)
same,GI50,[41],> 100 µM (inactive)
same,GI50,[42],17.1 µM (inactive)
same,GI50,[43],6.3 µM (inactive)
same,GI50,[44],2.9 µM (inactive)
same,GI50,[45],9.57 µM (inactive)
same,GI50,[46],4.66 µM (inactive)
same,GI50,[47],70.8 µM (inactive)
same,GI50,[48],> 100 µM (inactive)
same,GI50,[49],> 100 µM (inactive)
same,GI50,[50],46.3 µM (inactive)
same,GI50,[51],2.77 µM (inactive)
same,GI50,[52],3.35 µM (inactive)
same,GI50,[53],79.3 µM (inactive)
same,GI50,[54],63.2 µM (inactive)
same,GI50,[55],7.87 µM (inactive)
same,GI50,[56],83.6 µM (inactive)
same,GI50,[57],> 100 µM (inactive)
